“Also recorded” adds a separate entry of the source. Like-named read-outs stand apart in the source and are kept apart here.
Legend:
[1] = system: SV-40 transformed human corneal epithelial cells (HCEC); assay type: cell-based; settings: SV-40 HCEC, 4 hours under liquid crystal
[2] = system: SV-40 human corneal epithelial cells (HCEC); experiment: TRANSWELL assay, prolonged (24 hour) exposure to liquid crystal, Calcein-AM readout; assay type: cell-based; settings: 50 μL liquid crystal in upper chamber, confluent and sub-confluent SV-40 HCEC
Protocol: FIGS. 5A and 5B present the results of additional experiments to evaluate the toxicity of two different liquid crystals, 5CB and TL-205, following prolonged exposure to cells. For these experiments, TRANSWELL assays were carried out in which cell cultures were plated onto membranes in a TRANSWELL plate such that they were fed from below by liquid media while in continual contact with the liquid crystal, which was directly overlaid on the cells themselves. Briefly, SV-40 human corneal epithelial cells (HCEC) were grown in SHEM+10% fetal bovine serum. Cells were removed from T-75 tissue culture plates via trypsinization, and counted using a hemacytometer. Cells were plated onto TRANSWELL membranes (3 μm pore size, Corning, Inc., Corning, N.Y.) that allowed them to remain in contact with the liquid crystal as well as with the growth medium for 24 hours. Cells were plated at a concentration of 20,000 cells/well and allowed to grow. Some cells were tested at a density of confluence, approximately 45,000 cells (FIG. 5A), while another set was tested at a density of sub-confluence, approximately 30,000 cells/well (FIG. 5B). […] Calcein-AM was added to each well, and the cell fluorescence was measured to assess cell number. Fluorescence was read using a SYNERGY HT plate reader (Bio-Tek, Instruments, Inc., Winooksi, Vt.).

[3] = system: vesicular stomatitis virus (VSV); assay type: cell-based; settings: 2×10^7 pfu VSV, room temperature, 30 minutes, 1 hour or 4 hours
[4] = system: vesicular stomatitis virus (VSV); assay type: cell-based; settings: 1.5×10^7 pfu VSV, 1 hour at 37° C., supernatant titrated after 2 days
HeLa cells [5] = experiment: Effects of liquid crystals on HeLa cells (morphology and viability); settings: DSCG in water; 30% (w/v) A3 in H2O; 21% (w/v) C14AO in H2O with 3% C10OH
Protocol: (§1) HeLa mammalian cell line (from human cervical cancer cells) were grown in poly-L-lysine (MW 30,000 to 70,000)-treated coverslips in a 12-well plate in MEM medium supplemented with 10% fetal bovine serum. HeLa cells were grown in tissue culture plates until the cells reached a confluency of 90 to 95% within 24 hrs and were maintained at 37° C. with 5% CO2.
(§2) After incubation for less than one day, the DMEM was removed, the cells washed with PBS, 250 μl of the liquid crystal solution was overlaid.
(§3) The overlaid cultures were incubated at 37° C. for 4 hours, at which time the liquid crystals were removed, the cells were washed with PBS, and 1 mL of medium DMEM was added back to the cells. The cells were then incubated in the medium at 37° C. for an additional 4 days and then evaluated for morphology and viability.

Human IgG = experiment: Test of antibody binding in lyotropic liquid crystals (FITC anti-Human IgG to immobilized Human IgG); settings: 200 nM FITC anti-Human IgG in liquid crystal (10% DSCG), 4 hours, room temperature
[6] = Viscosity of lyotropic liquid crystals; assay type: physicochemical; settings: DSCG 9% wt, Triton 60% wt, Brij 50% wt, AMO 20% wt
Protocol: Lyotropic liquid crystals were investigated for their biocompatibility and bio-inertness based on the following three criteria: (1) viscosity; (2) observed birefringence of the liquid crystal; and (3) protein binding activity when proteins are dissolved in the lyotropic liquid crystals. The stability of protein structure in the lyotropic liquid crystals is implicitly tested based on the evaluation of criterion (3). The binding activity of antibodies in the liquid crystal was tested by covalent attachment of an antibody to a solid surface and measurement of the binding of a fluorescently labeled antibody to the immobilized antibody.

pH of DSCG in water = assay type: physicochemical
HeLa cells [7] = system: HeLa cells
Protocol: as §1, §2, §3

Compound | VSV infectivity after incubation of virus with liquid crystal [3] | VSV growth after inoculation of HeLa cells in the presence of liquid crystal [4] | antibody binding activity in the lyotropic liquid crystal (in words) (Human IgG) | Viscosity [6] | also measured
CCCCCc1ccc(-c2ccc(C#N)cc2)cc1 [5CB, 4-cyano-4′-pentylbiphenyl] |  |  |  |  | toxicity to cells (in words) [1]: toxic; cell viability after prolonged exposure [2]: appears to kill cells
COCCOCCOCCOCc1c(C)c(COCCOCCOCCOC)c(C)c(COCCOCCOCCOC)c1C [A3] | no growth of VSV was observed | no growth of VSV was observed |  |  | appearance of HeLa cells during contact with liquid crystal (HeLa cells [5]): cell membranes started to show a rough appearance (blebbing) and the nuclei condensed
CCCCCCCCCCCCCC[N+](C)(C)[O-] [AMO, tetradecyldimethylamineoxide] |  |  | preserve specific antibody binding activity | 50-200 cp | 
O=C(O)c1cc(=O)c2c(OCC(O)COc3cccc4oc(C(=O)O)cc(=O)c34)cccc2o1 [DSCG, disodium chromoglycate] | VSV is stable in the presence of DSCG; also recorded: the concentration of the virus had not changed significantly | VSV can infect cells in the presence of DSCG | FITC fluorescence was only found in the arrayed spots | 0.5-30 cp | pH (pH of DSCG in water): < 6; HeLa cells after liquid crystal removed and medium added back (HeLa cells [7]): proliferated well after the medium was added; appearance of HeLa cells during contact with liquid crystal (HeLa cells [7]): cells rounded up and detached from the surface
Laurate |  |  | interfered with antibody binding activities | 1-100 cp | 
Triton |  |  | interfered with antibody binding activities | >100 cp | 
